Source: ChEMBL document CHEMBL4043272, “Synthesis and in vitro biological evaluation of new pyrimidines as glucagon-like peptide-1 receptor agonists” (Bioorg Med Chem Lett, 2017)
Calls of active or inactive are those of the source. The calls are words filed in the database; no cut-off is given here.

Tests used:
Format in all cases: cell-based
[1] = target: T1, Glucagon-like peptide 1 receptor (Mus musculus) (UniProt O35659); assay: Agonist activity at GLP1 receptor in mouse BetaTC6 cells assessed as increase in glucose-dependent insulin secretion at 10^-15 to 10^-9 M after 120 mins by sandwich ELISA
T1 sequence (whole entry): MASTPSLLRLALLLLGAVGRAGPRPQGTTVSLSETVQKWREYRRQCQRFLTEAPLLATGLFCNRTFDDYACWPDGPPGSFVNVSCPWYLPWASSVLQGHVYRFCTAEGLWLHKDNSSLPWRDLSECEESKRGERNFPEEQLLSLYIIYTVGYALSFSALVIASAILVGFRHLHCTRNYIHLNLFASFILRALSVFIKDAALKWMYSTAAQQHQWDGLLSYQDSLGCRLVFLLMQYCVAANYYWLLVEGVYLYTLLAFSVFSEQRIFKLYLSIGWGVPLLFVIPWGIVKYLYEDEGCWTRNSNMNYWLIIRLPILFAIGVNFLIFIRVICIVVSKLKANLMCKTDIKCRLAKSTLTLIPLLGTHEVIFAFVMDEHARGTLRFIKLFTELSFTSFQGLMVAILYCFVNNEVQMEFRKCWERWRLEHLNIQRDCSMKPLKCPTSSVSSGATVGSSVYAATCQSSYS

[2] = target: T1, Glucagon-like peptide 1 receptor (Mus musculus); assay: Agonist activity at GLP1 receptor in mouse BetaTC6 cells assessed as increase in insulin secretion at 10^-15 to 10^-12 M after 120 mins by sandwich ELISA
[3] = target: T1, Glucagon-like peptide 1 receptor (Mus musculus); assay: Agonist activity at GLP1 receptor in mouse BetaTC6 cells assessed as increase in glucose-dependent insulin secretion at 10^-15 M after 120 mins by sandwich ELISA
[4] = target: T1, Glucagon-like peptide 1 receptor (Mus musculus); assay: Agonist activity at GLP1 receptor in mouse BetaTC6 cells assessed as increase in glucose-dependent insulin secretion after 120 mins by sandwich ELISA
[5] = target: T1, Glucagon-like peptide 1 receptor (Mus musculus); assay: Agonist activity at GLP1 receptor in mouse BetaTC6 cells assessed as increase in insulin secretion at 10^-15 to 10^-9 M after 120 mins by sandwich ELISA

Activity [1] | Activity [2] | Activity [3] | Activity [4] | Activity [5] | SMILES
inactive | Active |  |  |  | O=C(Nc1nccc(N/N=C/c2ccc(F)cc2)n1)NC1CCCC1
 | Active | Active |  |  | c1ccc(CNc2ccnc(NC3CCCCCC3)n2)cc1
 |  |  | inactive | Active | Cc1ccc(S(=O)(=O)NC(=O)Nc2ccnc(N)n2)cc1
